Experimental data published in patent US20140066385A1, “METHOD FOR TREATING CANCER BY COMBINED USE OF DRUGS” (Astellas Pharma Inc., priority 2011, published 2014).

How the values were obtained:
[1] = system: human non-small cell lung cancer (Calu-6); test: Example 2: FK330 with multicycle paclitaxel in Calu-6 tumor-bearing mice; format: in vivo, nude mice; details: for tumor volume reduction ratio compared with the paclitaxel-only group: FK330 100 mg/kg bid p.o. continuously + paclitaxel 10 mg/kg/day i.v. multicycle, P<0.01
Description: The dose of FK330 is expressed in weight including the hydrate. A paclitaxel injectable preparation (paclitaxel injection liquid, “Sawai”) was purchased from Sawai Pharmaceutical Co., Ltd., and was used as paclitaxel.
FK330 was suspended (20 mg/mL) in a 0.5% aqueous methyl cellulose solution (0.5% MC). Paclitaxel was prepared with physiological saline for injection (Otsuka Pharmaceutical Group) to a concentration of 1 mg/mL at the time of use.
Human lung cancer-derived Calu 6 (HTB-56) was obtained from American Type Culture Collection (VA, USA). The cells were cultured under the conditions of 37° C. and 5% CO2 by using RPMI1640 medium containing 10% heat-inactivated fetal bovine serum (FBS). The cells were harvested with trypsin and were suspended in PBS at 6×10^7 cells/mL, and the suspension was mixed with an equal amount of Matrigel (trade name) Basement Membrane Matrix (manufactured by Becton Dickinson Co., Bedford, Mass., USA).
(§1) Five-week old male nude mice (CAnN Cg-Foxn1nu/CrICrlj(nu/nu)) were purchased from Charles River Laboratories Japan, Inc. (Japan, Kanagawa). The animals were raised under specific pathogen-free (SPF) conditions throughout the test period by feeding standard feedstuff and drinking water. The cultured cells were subcutaneously inoculated into the dorsal region of the nude mice at a concentration of 3×10^6 cells/0.1 mL/mouse. Nude mice which had the tumor volumes (major axis×[minor axis]^2×0.52) ranging from 136.5 mm^3 to 299.0 mm^3 were assigned by using SAS to minimize the fluctuation in the tumor volume between the groups and within the group.
The first day of administration was designated as Day 1, and observation was made until Day 83. The respective groups (n=6) were treated as follows. FK330 was orally gavaged in an amount of 5 mL/kg, and paclitaxel was administered intravenously through the tail vein in an amount of 10 mL/kg. Paclitaxel was continuously administered from Day 1 to Day 7, and then was withdrawn for 23 days (1 cycle). In the administration of PTX in the second cycle and the third cycle, PTX was continuously administered for 6 days from Day 31 and from Day 60, respectively. […]
Every 2 to 4 days, the body weight and the tumor diameters, determined by using a digital caliper, were measured. The tumor volume was calculated from the calculation formula for ellipsoid volume of (major axis×[minor axis]^2×0.52).
The results are expressed as the mean value (Mean)±standard error (SEM). […] Using the actual measured values of the tumor volume at the end of the study, an unpaired statistical test (Student's t-test) of the difference between two groups was carried out between a single administration group and a combined use group. […]

[2] = system: human non-small cell lung cancer (Calu-6); test: Example 4: administration timing of FK330 with paclitaxel in Calu-6 tumor-bearing mice; format: in vivo, nude mice; details: Day 55; for tumor volume at the end of the study: mean±SEM
Description: Preparation of the test substances and conditioning of the cells were carried out in the same manner as in Example 2.
as §1, with “Cg-Foxn1nu/CrlCrlj(nu/nu))” for “Cg-Foxn1nu/CrICrlj(nu/nu))”, “142.1” for “136.5”, “359.1” for “299.0”
The first day of administration was designated as Day 0, and observation was made until Day 55. The respective groups (n=5 or 6) were treated as follows. FK330 was orally gavaged in an amount of 5 mL/kg, and paclitaxel was administered intravenously through the tail vein in an amount of 10 mL/kg. Paclitaxel was continuously administered from Day 0 to Day 5, was subsequently withdrawn for 22 days, and then was continuously administered for 5 days from Day 28 to Day 32.
Paclitaxel single administration group: Paclitaxel 10 mg/kg/day (from Day 0 to Day 5, and from Day 28 to Day 32)
Concomitant administration, FK330 100 mg/kg bid (200 mg/kg/day)+paclitaxel 10 mg/kg/day (from Day 0 to Day 5, and from Day 28 to Day 32)
Sequential administration, FK330 100 mg/kg bid (200 mg/kg/day)+paclitaxel 10 mg/kg/day (from Day 0 to Day 5, and from Day 28 to Day 32)
Continuous administration, FK330 100 mg/kg bid (200 mg/kg/day)+paclitaxel 10 mg/kg/day (from Day 0 to Day 5, and from Day 28 to Day 32)
FK330 was orally gavaged (5 mL/kg) twice a day at an interval of 6 to 8 hours. In the Concomitant administration, FK330 was administered on the days of administration of paclitaxel (from Day 0 to Day 5, and from Day 28 to Day 32); and in the […] administration, FK330 was administered on the withdrawal days after the days of administration of paclitaxel (from Day 6 to Day 27, and from Day 33 to Day 55), while the continuous administration was carried out for all days from the day of experiment initiation to the day of experiment completion. Paclitaxel was administered by intravenous bolus injection (10 mL/kg) through the tail vein 2 to 4 hours after the administration of FK330.
Every 3 to 4 days, the body weight and the tumor diameters, determined by using a digital caliper, were measured. The tumor volume was calculated from the calculation formula for ellipsoid volume of (major axis×[minor axis]^2×0.52).

Row | Compound | tumor volume reduction ratio compared with the paclitaxel-only group ([1]; Day 29) [%] | tumor volume reduction ratio compared with the paclitaxel-only group ([1]; Day 60) [%] | tumor volume reduction ratio compared with the paclitaxel-only group ([1]; Day 83) [%] | tumor volume reduction ratio compared with the paclitaxel-only group ([2]; concomitant administration of FK330 100 mg/kg bid + paclitaxel) [%] | tumor volume at the end of the study ([2]; concomitant administration of paclitaxel and FK330 100 mg/kg bid (FK330 on paclitaxel days only)) [mm^3] | tumor volume at the end of the study ([2]; continuous administration of FK330 100 mg/kg bid (all days) + paclitaxel) [mm^3] | tumor volume reduction ratio compared with the paclitaxel-only group ([2]; continuous administration of FK330 100 mg/kg bid + paclitaxel) [%] | tumor volume at the end of the study ([2]; sequential administration of FK330 100 mg/kg bid (on paclitaxel withdrawal days) + paclitaxel) [mm^3] | tumor volume reduction ratio compared with the paclitaxel-only group ([2]; sequential administration of FK330 100 mg/kg bid + paclitaxel) [%] | anti-tumor effect of paclitaxel as a result of multicycle administration ([1]; paclitaxel 10 mg/kg/day i.v. alone, three cycles, until Day 83) | tumor volume at the end of the study ([2]; paclitaxel-only group, 10 mg/kg/day i.v. Day 0-5 and Day 28-32) [mm^3]
1 | O=C(/C=C/c1ccc(Cl)cc1)N[C@@H](Cc1ccccn1)C(=O)NCC(=O)N1CCC(Oc2cc(C(F)(F)F)ncn2)CC1 [FK330, N^2-[(2E)-3-(4-chlorophenyl)-2-propenoyl]-N-[2-oxo-2-(4-{[6-(trifluoromethyl)pyrimidin-4-yl]oxy}piperidin-1-yl)ethyl]-3-pyridin-2-yl-L-alaninamide] | 57.6 | 86.1 | 87.6 | 54.5 | 559.8±161.8 | 168.5±66.0 | 86.3 | 1150.9±264.9 | 6.4 | – | –
2 | CC(=O)O[C@H]1C(=O)[C@@]2(C)[C@H]([C@H](OC(=O)c3ccccc3)[C@]3(O)C[C@H](OC(=O)[C@H](O)[C@@H](NC(=O)c4ccccc4)c4ccccc4)C(C)=C1C3(C)C)[C@]1(OC(C)=O)CO[C@@H]1C[C@@H]2O [paclitaxel, reference compound] | – | – | – | – | – | – | – | – | – | tended to attenuate | 1229.2±289.6
